What all share (assay type): biochemical
Experiment [1] has as its system α-Galactosidase (E. Coli, EC. 3.2.1.22). Put plainly: α-Galactosidase enzyme inhibition assay (p-nitrophenyl α-D-galactopyranoside). As to conditions: pH 6.5, room temperature, 15 minutes. The procedure:
(§1) By using a 96-well microplate, the absorbance (at 405 nm) of liberated p- or o-nitrophenol was measured with a microplate reader (MPR-4Ai, manufactured by Tosoh Corporation).
(§2) The enzymes employed herein [α-glucosidase (Baker's yeast), β-glucosidase (Almonds), α-galactosidase (E. coli), β-galactosidase (E. coli) and β-galactosidase (Bovine Liver)] were all purchased from Sigma.
(§3) The substrates (p- or o-nitrophenylglycoside) of these enzymes were all purchased from Sigma.
3) α-Galactosidase (E. Coli, EC. 3.2.1.22) [described in H. Suzuki, S-C. Li and Y-T. Li, J. Biol. Chem., 245, 781-786 (1970)]
Into each well were introduced an aqueous solution of a sample (1 μl), a buffer (74 μl), a 9.9 mM solution of p-nitrophenyl α-D-galactopyranoside in a buffer (20 μl) and a (50 μg/ml) enzyme solution in the buffer (5 μl) to give a total volume of 100 μl. After incubating the resulting mixture at room temperature (20°-30° C.) for 15 minutes, the reaction was ceased by adding a 0.2M borate buffer solution (pH 9.8, prepared from NaOH and H3 BO3, 100 μl). Then the absorbance (A405) of p-nitrophenol liberated by this enzyme reaction was measured. To give the blank absorbance (Ablank), the sample (1 μl), the substrate (20 μl) and the buffer solution (79 μl) were incubated in the same manner and the 0.2M borate buffer solution (100 μl) was added followed by the measurement of the absorbance. To give the control absorbance ([…]), on the other hand, water (1 μl), the substrate (20 μl), the buffer solution (74 μl) and the enzyme solution (5 μl) were incubated in the same manner and the borate buffer solution (100 μl) was added followed by the measurement of the absorbance. A 0.1M phosphate buffer solution (pH 6.5, prepared from KH2 PO4 and K2 HPO4) was employed as the buffer for the enzyme reaction. The IC50 was determined in the same manner as employed in the case of α-glucosidase.

The target in experiment [2] is β-Glucosidase (Almonds, EC 3.2.1.21). Put plainly: β-Glucosidase enzyme inhibition assay (p-nitrophenyl β-D-glucopyranoside). The conditions noted are these: for IC50: pH 5.0, 37° C., 45 minutes. The procedure:
as §1
(§4) Incubation was carried out at 37° C. by using a natural incubator (Compact NIB-10, manufactured by Iwaki Glass Co., Ltd.).
as §2, §3
2) β-Glucosidase (Almonds, EC 3.2.1.21) [described in A. Kobayashi, Agr. Biol. Chem., 26, 203-207 (1962)]
Into each well were introduced an aqueous solution of a sample (1 μl), a 0.33 mM solution of p-nitrophenyl β-D-glucopyranoside in a buffer (98 μl) and a (0.4 mg/ml) enzyme solution in the buffer (1 μl) to give a total volume of 100 μl. After incubating at 37° C. for 45 minutes, the reaction was ceased by adding a 1M aqueous solution of sodium carbonate (100 μl). Then the absorbance (A405) of p-nitrophenol liberated by this enzyme reaction was measured. To give the blank absorbance (Ablank), the sample (1 μl) and the substrate (99 μl) were incubated in the same manner and an aqueous solution of sodium carbonate (100 μl) was added followed by the measurement of the absorbance. […] As the buffer, a 0.1M acetate buffer solution (pH 5.0, prepared from NaOAc and AcOH) was employed. The IC50 was determined in the same manner as employed in the case of α-glucosidase.

Experiment [3] addresses T1, β-Galactosidase (E. Coli, EC. 3.2.1.23) (Escherichia coli, UniProt P00722).
T1 construct: purchased Sigma; host or cells: E. coli
Put plainly: β-Galactosidase (E. coli) enzyme inhibition assay (o-nitrophenyl β-D-galactopyranoside). The procedure:
as §1, §2, §3
4) β-Galactosidase (E. Coli, EC. 3.2.1.23) [described in G. R. Craven, E. Steers, Jr. and C. B. Anfinsen, J. Biol. Chem., 240, 2468-2477 (1965)]
Into each well were introduced an aqueous solution of a sample (2 μl), a buffer (153 μl), a 20 mM solution of o-nitrophenyl β-D-galactopyranoside in a buffer (25 μl), a 100 mM 2-mercaptoethanol (10 μl) and a (10 μg/ml) enzyme solution in the buffer (10 μl) to give a total volume of 200 μl. After incubating at room temperature (20°-30° C.) for 30 minutes, the absorbance (A405) of o-nitrophenol liberated by this enzyme reaction was measured. To give the blank absorbance (Ablank), the sample (2 μl), the substrate (25 μl), the buffer solution (163 μl) and 2-mercaptoethanol (10 μl) were incubated in the same manner followed by the measurement of the absorbance. To give the control absorbance (Acontrol), on the other hand, water (2 μl), the substrate (25 μl), the buffer solution (153 μl), 2-mercaptoethanol (10 μl) and the enzyme solution (10 μl) were incubated in the same manner followed by the measurement of the absorbance. A 50 mM phosphate buffer solution (pH 7.3, prepared from KH2 PO4 and K2 HPO4, containing 1.3 mM of MgCl2) was employed as the buffer for the enzyme reaction. The IC50 was determined in the same manner as employed in the case of α-glucosidase.

Experiment [4] has as its target β-Galactosidase (Bovine liver. EC 3.2.1.23). The experiment in a line: β-Galactosidase (Bovine liver) enzyme inhibition assay (o-nitrophenyl β-D-galactopyranoside). The conditions noted are these: pH 7.3, room temperature, 30 minutes. On the procedure: as §1, §2, §3
5) β-Galactosidase (Bovine liver. EC 3.2.1.23) [described in T. Aoyagi, T. Hazato, M. Kumagai, M. Hamada, T. Takeuchi and H. Umezawa, J. Antibiot., 28, 1006-1008 (1975)]
Into each well were introduced an aqueous solution of a sample (2 μl), a buffer (158 μl), a 20 mM solution of o-nitrophenyl β-D-galactopyranoside in a buffer (25 μl), a 100 mM 2-mercaptoethanol (10 μl) and a (5 mg/ml) enzyme solution in the buffer (5 μl) to give a total volume of 200 μl. After incubating at room temperature (20°-30° C.) for 30 minutes, the absorbance (A405) of o-nitrophenol liberated by this enzyme reaction was measured. To give the blank absorbance (Ablank), the sample (2 μl), the substrate (25 μl), the buffer solution (163 μl) and 2-mercaptoethanol (10 μl) were incubated in the same manner followed by the measurement of the absorbance. […] The IC50 was determined in the same manner as the one employed in the case of α-glucosidase.

In experiment [5] the target is T2, α-Glucosidase (Baker's yeast, EC 3.2.1.20) (Saccharomyces cerevisiae, UniProt P53341).
T2 construct: purchased Sigma; host or cells: Baker's yeast
The experiment in a line: α-Glucosidase enzyme inhibition assay (p-nitrophenyl α-D-glucopyranoside). The conditions noted are these: for IC50: pH 6.8, 37° C., 30 minutes, read-out: IC50 (M) α-Glucosidase (Baker's yeast). On the procedure:
as §1, §4, §2, §3
1) α-Glucosidase (Baker's yeast, EC 3.2.1.20) [described in H. Halvorson and L. Ellias, Biochim. Biophys. Acta, 30, 28-40 (1958)]
Into each well were introduced an aqueous solution of a sample (1 μl), a 0.66 mM solution of p-nitrophenyl α-D-glucopyranoside in a buffer (98 μl) and a (0.4 mg/ml) enzyme solution in the buffer (1 μl) to give a total volume of 100 μl. After incubating at 37° C. for 30 minutes, the reaction was ceased by adding a 1M aqueous solution of sodium carbonate (100 μl). Then the absorbance (A405) of p-nitrophenol liberated by this enzyme reaction was measured. To give the blank absorbance (Ablank), the sample (1 μl) and the substrate (99 μl) were incubated in the same manner and an aqueous solution of sodium carbonate (100 μl) was added followed by the measurement of the absorbance. […] The sample at each concentration, the blank and the control were treated each in two wells at the same time. As the buffer, a 0.1M phosphate buffer solution (pH 6.8, prepared from KH2 PO4 and K2 HPO4) was employed.

T2 sequence (P53341 whole entry): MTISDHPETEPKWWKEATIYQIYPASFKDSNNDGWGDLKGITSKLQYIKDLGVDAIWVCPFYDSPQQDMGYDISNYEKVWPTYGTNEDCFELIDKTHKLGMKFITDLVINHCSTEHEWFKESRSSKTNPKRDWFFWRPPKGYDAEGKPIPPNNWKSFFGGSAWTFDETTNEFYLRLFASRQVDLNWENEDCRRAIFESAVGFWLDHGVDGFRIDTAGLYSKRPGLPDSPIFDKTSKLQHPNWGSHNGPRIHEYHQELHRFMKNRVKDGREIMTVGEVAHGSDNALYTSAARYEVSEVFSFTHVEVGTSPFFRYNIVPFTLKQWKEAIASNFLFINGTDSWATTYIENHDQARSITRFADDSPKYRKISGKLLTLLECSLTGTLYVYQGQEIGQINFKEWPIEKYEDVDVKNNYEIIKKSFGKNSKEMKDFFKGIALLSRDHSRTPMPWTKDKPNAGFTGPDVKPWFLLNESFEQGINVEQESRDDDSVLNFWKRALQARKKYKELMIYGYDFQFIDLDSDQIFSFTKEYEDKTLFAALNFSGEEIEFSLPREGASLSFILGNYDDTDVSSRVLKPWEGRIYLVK
T1 sequence (P00722 2-1024 limits assumed): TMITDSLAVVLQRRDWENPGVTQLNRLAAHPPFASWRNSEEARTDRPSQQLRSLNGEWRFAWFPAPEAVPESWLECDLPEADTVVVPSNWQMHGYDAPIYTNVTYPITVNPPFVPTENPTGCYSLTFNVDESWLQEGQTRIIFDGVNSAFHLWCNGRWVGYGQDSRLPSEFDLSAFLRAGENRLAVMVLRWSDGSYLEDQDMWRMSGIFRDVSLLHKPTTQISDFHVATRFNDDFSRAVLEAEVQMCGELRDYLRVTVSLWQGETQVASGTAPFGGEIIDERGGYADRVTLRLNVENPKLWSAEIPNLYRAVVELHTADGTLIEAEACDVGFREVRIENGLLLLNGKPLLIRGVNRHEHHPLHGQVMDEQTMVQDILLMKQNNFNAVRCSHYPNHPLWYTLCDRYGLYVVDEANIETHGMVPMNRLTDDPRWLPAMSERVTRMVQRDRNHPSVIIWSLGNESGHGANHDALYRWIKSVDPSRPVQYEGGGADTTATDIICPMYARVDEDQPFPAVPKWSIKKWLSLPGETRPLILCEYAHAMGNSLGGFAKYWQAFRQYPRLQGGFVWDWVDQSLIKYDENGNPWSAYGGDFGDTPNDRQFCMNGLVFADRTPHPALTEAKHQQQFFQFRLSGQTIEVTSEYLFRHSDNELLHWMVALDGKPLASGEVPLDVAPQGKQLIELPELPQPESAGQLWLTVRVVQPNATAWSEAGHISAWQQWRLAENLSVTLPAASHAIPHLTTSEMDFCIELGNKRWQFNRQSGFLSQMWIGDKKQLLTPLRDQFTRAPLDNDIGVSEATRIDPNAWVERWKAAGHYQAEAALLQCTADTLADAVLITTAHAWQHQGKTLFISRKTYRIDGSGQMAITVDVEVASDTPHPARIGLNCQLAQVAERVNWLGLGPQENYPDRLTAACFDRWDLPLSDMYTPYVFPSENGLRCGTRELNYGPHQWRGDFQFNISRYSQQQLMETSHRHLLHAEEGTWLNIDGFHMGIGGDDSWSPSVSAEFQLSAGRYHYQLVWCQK

In general, IC50 refers to the concentration that gives 50% inhibition. Consider `OC[C@@]1(O)[C@@H]2N=C(Nc3ccccc3)O[C@@H]2C(O)[C@@H]1O` (stereo in doubt) [Compound 1-1L, (1S,5R,6S,7S,8R)-6-hydroxymethyl-3-phenylamino-2-oxa-4-azabicyclo[3.3.0]oct-3-ene-6,7,8-triol], for which the IC50 in experiment [1] is over 300 µM; in experiment [2], over 300 µM; in experiment [3], over 300 µM; in experiment [4], 153 µM; in experiment [5], 2.93e-08 M. For the same molecule, in experiment [2] (summary of Table 1), the “inhibitory activity against β-glucosidase (in words)” value is “weak inhibitory activities”. The “inhibitory activity against α-glucosidase (in words)” value in experiment [5] (compared with deoxynojirimycin, summary of Tables 1 and 2) is listed as “remarkably strong inhibitory activities”.
Take `OC[C@@]1(O)[C@H](O)C(O)[C@@H]2OC(Nc3ccccc3)=N[C@@H]21` (stereo in doubt) [Compound 1-1D, (1R,5S,6R,7R,8S)-6-hydroxymethyl-3-phenylamino-2-oxa-4-azabicyclo[3.3.0]oct-3-ene-6,7,8-triol]: the IC50 in experiment [1] is over 300 µM; in experiment [2], over 300 µM; in experiment [3], over 300 µM; in experiment [4], 3 µM; in experiment [5], 2.32e-06 M.
